Assays:
HIV-1 PR = HIV-1 PR (Human immunodeficiency virus type 1 group M subtype B, UniProt P04585); assay: HIV-protease inhibitory activity assay (FRET peptide substrate); type: biochemical; conditions: Test Example 1
In short: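 Fluorescence recovery at ex 485/em 535 nm reports cleavage of a quenched FRET peptide (2 μmol/L final) by 0.83 ng enzyme over 60 minutes at room temperature. Buffer was NaAc pH 4.8 with NaCl, EDTA, DTT and Tween 20. IC50 values came from four-parameter logistic regression of % inhibition.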

[1] = Evaluation of total body clearance (CLtot), intravenous administration; type: in vivo, Sprague-Dawley (SD); conditions: rat (SD), intravenous administration 0.5-10 mg/kg; CLtot = dose/AUC
In short: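 Compounds given as a single tail-vein injection at 0.5-10 mg/kg (n=2-3), dose varying by compound. Plasma sampled at scheduled times and measured by LC/MS/MS; CLtot derived as dose divided by AUC from pharmacokinetic analysis.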

Row | Compound | IC50 (HIV-1 PR) [nM] | rat_CLt [1] [mL/min/kg]
1 | COc1ccc(S(=O)(=O)N(CC(C)C)CC(O)C(Cc2ccc(NCc3ccccc3-c3sc4c(c3C(=O)O)CC(C)(C)CC4)cc2)NC(=O)OC2COC3(C)OCCC23O)cc1 (stereo not drawn) [Compound I-890] | 1.74 | 0.652
2 | COc1ccc(S(=O)(=O)N(CC2CCC2)CC(O)C(Cc2ccc(NCc3ccccc3C(=O)Nc3sc4c(c3C(=O)O)CC(C)(C)CC4)cc2)NC(=O)OC2COC3(C)OCCC23)cc1 (stereo not drawn) [Compound I-602] | 3.67 | 0.0667
3 | COc1ccc(S(=O)(=O)N(CC(C)C)CC(O)C(Cc2ccc(NCc3cc(N4CCN(C)CC4)ccc3-c3sc4c(c3C(=O)O)CC(C)(C)CC4)cc2)NC(=O)OC2COC3(C)OCCC23)cc1 (stereo not drawn) [Compound I-680] | 2.1 | 2.77
4 | COc1ccc(S(=O)(=O)N(CC(C)C)CC(O)C(Cc2ccc(NCc3cc4ccsc4nc3-c3sc4c(c3C(=O)O)CC(C)(C)CC4)cc2)NC(=O)OC2COC3(C)OCCC23)cc1 (stereo not drawn) [Compound I-649] | 2.25 | 0.622
5 | COc1ccc(S(=O)(=O)N(CC(C)C)CC(O)C(Cc2ccc(NCc3ccccc3NC(=O)c3sc4c(c3C(=O)O)CC(C)(C)CC4)cc2)NC(=O)OC2COC3(C)OCCC23)cc1 (stereo not drawn) [Compound I-574] | 2.93 | 1.01
6 | CC1(C)CCc2sc(NC(=O)c3ccccc3CNc3ccc(CC(NC(=O)OC4COC5(C)OCCC45)C(O)CN(CC4CCC4)S(=O)(=O)c4ccc5ncsc5c4)cc3)c(C(=O)O)c2C1 (stereo not drawn) [Compound I-617] | 3.13 | 0.098
7 | COc1ccc(S(=O)(=O)N(CC(C)C)CC(O)C(Cc2ccc(N(C)CCOc3ccc(-c4sc5c(c4C(=O)O)CC(C)(C)CC5)c(C)c3)cc2)NC(=O)OC2COC3(C)OCCC23)cc1 (stereo not drawn) [Compound I-519] | 8.93 | 0.429
8 | COc1ccc(S(=O)(=O)N(CC(C)C)CC(O)C(Cc2ccc(N3CCC(Oc4cc(N(C)C)ccc4-c4sc5c(c4C(=O)O)CC(C)(C)CC5)C3)cc2)NC(=O)OC2COC3(C)OCCC23)cc1 (stereo not drawn) [Compound I-606] | 2.25 | 2.2
9 | COc1ccc(S(=O)(=O)N(CC(C)C)CC(O)C(Cc2ccc(NCc3ccccc3-c3sc4c(c3C(=O)O)CC(C)(C)CC4)cc2)NC(=O)OC2COC3OCCC23)cc1 (stereo not drawn) [Compound I-852] | 1.99 | 2.25
10 | COc1ccc(S(=O)(=O)N(CC(C)C)CC(O)C(Cc2ccc(NCc3cc(-n4ccccc4=O)ccc3-c3sc4c(c3C(=O)O)CC(C)(C)CC4)cc2)NC(=O)OC2COC3(C)OCCC23)cc1 (stereo not drawn) [Compound I-664] | 1.86 | 1.5
11 | COc1ccc(S(=O)(=O)N(CC(C)C)CC(O)C(Cc2ccc(N(C)Cc3cc(N4CCCC4=O)ccc3-c3sc4c(c3C(=O)O)CC(C)(C)CC4)cc2)NC(=O)OC2COC3(C)OCCC23)cc1 (stereo not drawn) [Compound I-584] | 2.3 | 0.77
12 | COc1ccc(S(=O)(=O)N(CC2CCCC2)CC(O)C(Cc2ccc(NCc3ccccc3-c3sc4c(c3C(=O)O)CC(C)(C)CC4)cc2)NC(=O)OC2COC3(C)OCCC23)cc1 (stereo not drawn) [Compound I-483] | 2.75 | 2.41
13 | COc1ccc(S(=O)(=O)N(CC(C)C)CC(O)C(Cc2ccc(N(C)Cc3cc(-c4sc5c(c4C(=O)O)CC(C)(C)CC5)co3)cc2)NC(=O)OC2COC3(C)OCCC23)cc1 (stereo not drawn) [Compound I-448] | 2.31 | 5.28
14 | COc1ccc(S(=O)(=O)N(CC(C)C)CC(O)C(Cc2ccc(NCC3=C(c4sc5c(c4C(=O)O)CC(C)(C)CC5)CC(C)(C)C3)cc2)NC(=O)OC2COC3(C)OCCC23)cc1 (stereo not drawn) [Compound I-662] | 2.51 | 1.11
15 | COc1ccc(S(=O)(=O)N(CC(C)C)CC(O)C(Cc2ccc(NCc3ncccc3-c3sc4c(c3C(=O)O)CC(C)(C)CC4)cc2)NC(=O)OC2COC3(C)OCCC23)cc1 (stereo not drawn) [Compound I-305] | 1.99 | 1.55
16 | COc1ccc(S(=O)(=O)N(CC(C)C)CC(O)C(Cc2ccc(NCc3ccc(C(F)(F)F)cc3-c3sc4c(c3C(=O)O)CC(C)(C)CC4)cc2)NC(=O)OC2COC3(C)OCCC23)cc1 (stereo not drawn) [Compound I-526] | 6.47 | 0.632
17 | COc1ccc(S(=O)(=O)N(CC(C)C)CC(O)C(Cc2ccc(N(C)Cc3cccc(C(F)(F)F)c3-c3sc4c(c3C(=O)O)CC(C)(C)CC4)cc2)NC(=O)OC2COC3(C)OCCC23)cc1 (stereo not drawn) [Compound I-537] | 5.5 | 0.328
18 | COc1ccc(S(=O)(=O)N(CC(C)C)CC(O)C(Cc2ccc(N(C)Cc3cc4c(cc3-c3sc5c(c3C(=O)O)CC(C)(C)CC5)OCCO4)cc2)NC(=O)OC2COC3(C)OCCC23)cc1 (stereo not drawn) [Compound I-704] | 2.39 | 0.724

Row | Compound | IC50 (HIV-1 PR) [nM] | rat_CLt [1] [mL/min/kg]
19 | COc1ccc(S(=O)(=O)N(CC(C)C)CC(O)C(Cc2ccc(NCc3ccccc3-c3sc(N(C4CCCCC4)C4CCCCC4)nc3C(=O)O)cc2)NC(=O)OC2COC3(C)OCCC23)cc1 (stereo not drawn) [Compound I-454] | 5.51 | 4.02
20 | CC1(C)CCc2sc(NC(=O)c3ccccc3CNc3ccc(CC(NC(=O)OC4COC5OCCC45)C(O)CN(CC4CCC4)S(=O)(=O)c4ccc5c(c4)OCO5)cc3)c(C(=O)O)c2C1 (stereo not drawn) [Compound I-861] | 2.8 | 0.0804
21 | COc1ccc(S(=O)(=O)N(CC(C)C)CC(O)C(Cc2ccc(OCc3ccccc3-c3nc4n(c3C(=O)O)CCCC4)cc2)NC(=O)OC2COC3(C)OCCC23)cc1 (stereo not drawn) [Compound I-125] | 1.58 | 3.89
22 | COc1ccc(S(=O)(=O)N(CC(C)C)CC(O)C(Cc2ccc(N(C)Cc3cccc(C)c3-c3sc4c(c3C(=O)O)CC(C)(C)CC4)cc2)NC(=O)OC2COC3(C)OCCC23)cc1 (stereo not drawn) [Compound I-599] | 2.46 | 0.479
23 | COc1ccc(S(=O)(=O)N(CC(C)C)CC(O)C(Cc2ccc(NCc3nc(N4CCCC4)sc3-c3ccc(-c4sc5c(c4C(=O)O)CC(C)(C)CC5)cc3)cc2)NC(=O)OC2COC3(C)OCCC23)cc1 (stereo not drawn) [Compound I-714] | 4.5 | 0.0783
24 | CC(C)CN(CC(O)C(Cc1ccc(NCc2ccccc2-c2sc3c(c2C(=O)O)CC(C)(C)CC3)cc1)NC(=O)OC1COC2(C)OCCC12)S(=O)(=O)c1ccc2c(c1)OCO2 (stereo not drawn) [Compound I-465] | 2.97 | 0.675
25 | CC1(C)CCc2sc(NC(=O)c3ccccc3CNc3ccc(CC(NC(=O)OC4COC5(C)OCCC45)C(O)CN(CC4CCCC4)S(=O)(=O)c4ccc5c(c4)OCO5)cc3)c(C(=O)O)c2C1 (stereo not drawn) [Compound I-600] | 5.07 | 0.104
26 | COc1ccc(S(=O)(=O)N(CC(C)C)CC(O)C(Cc2ccc(NCc3cccc(C(F)(F)F)c3-c3sc4c(c3C(=O)O)CC(C)(C)CC4)cc2)NC(=O)OC2COC3(C)OCCC23)cc1 (stereo not drawn) [Compound I-485] | 2.28 | 0.45
27 | COc1ccc(S(=O)(=O)N(CC(C)C)CC(O)C(Cc2ccc(N(C)Cc3ccccc3-n3nc4c(c3C(=O)O)CC3(CCCC3)CC4)cc2)NC(=O)OC2COC3(C)OCCC23)cc1 (stereo not drawn) [Compound I-466] | 4.28 | 1.75
28 | COc1ccc(S(=O)(=O)N(CC(C)C)CC(O)C(Cc2ccc(N(C)Cc3ccc(OC)cc3-c3sc4c(c3C(=O)O)CC(C)(C)CC4)cc2)NC(=O)OC2COC3(C)OCCC23)cc1 (stereo not drawn) [Compound I-490] | 2.01 | 0.88
29 | COc1ccc(S(=O)(=O)N(CC(O)C(Cc2ccc(NCc3ccccc3-c3sc4c(c3C(=O)O)CC(C)(C)CC4)cc2)NC(=O)OC2COC3(C)OCCC23)CC(C)(C)C)cc1 (stereo not drawn) [Compound I-473] | 2.71 | 1.22
30 | COc1ccc(S(=O)(=O)N(CC(C)C)CC(O)C(Cc2ccc(NC(C)c3ccccc3-c3sc4c(c3C(=O)O)CC(C)(C)CC4)cc2)NC(=O)OC2COC3(C)OCCC23)cc1 (stereo not drawn) [Compound I-603] | 3.65 | 5.83
31 | COc1ccc(S(=O)(=O)N(CC(C)C)CC(O)C(Cc2ccc(N3CCC(Oc4ccc(C(F)(F)F)cc4-c4sc5c(c4C(=O)O)CC(C)(C)CC5)C3)cc2)NC(=O)OC2COC3(C)OCCC23)cc1 (stereo not drawn) [Compound I-514] | 6.21 | 3.01
32 | COc1ccc(S(=O)(=O)N(CC(C)C)CC(O)C(Cc2ccc(N3CCC(Oc4ccccc4-c4sc5c(c4C(=O)O)CC(C)(C)CC5)CC3)cc2)NC(=O)OC2COC3(C)OCCC23)cc1 (stereo not drawn) [Compound I-578] | 2.39 | 3.16
33 | COc1ccc(S(=O)(=O)N(CC(C)C)CC(O)C(Cc2ccc(NCc3cc(N4CCC4)ccc3-c3sc4c(c3C(=O)O)CC(C)(C)CC4)cc2)NC(=O)OC2COC3(C)OCCC23)cc1 (stereo not drawn) [Compound I-693] | 3.3 | 0.247
34 | COc1ccc(S(=O)(=O)N(CC(C)C)CC(O)C(Cc2ccc(NCc3ccc(C(=O)NCc4ccc(F)cc4)cc3-c3sc4c(c3C(=O)O)CC(C)(C)CC4)cc2)NC(=O)OC2COC3(C)OCCC23)cc1 (stereo not drawn) [Compound I-481] | 3.72 | 3.29
35 | COc1ccc(S(=O)(=O)N(CC(C)C)CC(O)C(Cc2ccc(NCc3nc(N4CCCC4)sc3-c3sc4c(c3C(=O)O)CC(C)(C)CC4)cc2)NC(=O)OC2COC3(C)OCCC23)cc1 (stereo not drawn) [Compound I-607] | 1.8 | 0.797
36 | COc1ccc(S(=O)(=O)N(CC(C)C)CC(O)C(Cc2ccc(NCc3cc(C)ccc3-c3sc4c(c3C(=O)O)CC(C)(C)CC4)cc2)NC(=O)OC2COC3(C)OCCC23)cc1 (stereo not drawn) [Compound I-545] | 1.85 | 1.15

Reference: patent publication US20170253607A1, “LONG-ACTING HIV PROTEASE INHIBITOR” (Shionogi & Co., Ltd., priority 2014, published 2017)
